We go through eight molecules from ChEMBL document CHEMBL1201862, “PubChem BioAssay data set” (2004).

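Five concentrations, 48 hours, 96-well plates. GI50 is the concentration that inhibits growth by half.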 The source made the active and inactive calls. Cut-off read from the data, not from the text of the source: active = GI50 up to about 1.1 µM and inactive = higher.

Some test systems named below: CAKI-1; DU-145; HCT-15; HL-60; KM12; LOX IMVI; MDA-MB-231; MDA-MB-435; MOLT-4; NCI-H460; NCI/ADR-RES; OVCAR-3; OVCAR-5; OVCAR-8; SF-268; SF-295; SK-MEL-2; SK-MEL-5; SNB-19; UACC-62.
Holding throughout (experiment): growth of human tumour cells (NCI), 48 h

For the molecule `c1ccc2c3c([nH]c2c1)C1CCCN1CC3` (stereo unspecified), the GI50 in the assay with CAKI-1 is > 10 µM (inactive); in the assay with DU-145 it was > 10 µM (inactive); in the assay with HCT-15, greater than 10 µM; with HL-60, > 10 µM (inactive); in the assay with KM12 it was > 10 µM (inactive); in the assay with LOX IMVI, > 10 µM (inactive). Further, the GI50 with MDA-MB-231, in the assay with MDA-MB-435, in the assay with MOLT-4, in the assay with NCI-H460, in the assay on NCI/ADR-RES and with OVCAR-3 was > 10 µM (inactive) in each case. The GI50 in the assay on OVCAR-5, in the assay with OVCAR-8, in the assay on SF-268, in the assay with SF-295, with SK-MEL-2 and in the assay on SK-MEL-5 was > 10 µM (inactive) each time. Moreover, the GI50 with SNB-19 is > 10 µM (inactive).

Regarding `CCCCCCNCCCNc1c2cc(OC)ccc2nc2cccc([N+](=O)[O-])c12`, the GI50 is 0.211 µM (active) in the assay on CAKI-1; 0.0413 µM (active) with DU-145; 0.198 µM with HCT-15; 0.214 µM (active) with HL-60; 0.144 µM (active) in the assay with KM12; 0.134 µM (active) with LOX IMVI. Besides, the GI50 is 0.055 µM (active) in the assay on MDA-MB-231; 0.143 µM (active) in the assay on MDA-MB-435; 0.112 µM (active) in the assay with MOLT-4; 0.0336 µM (active) with NCI-H460; 0.658 µM (active) in the assay with NCI/ADR-RES; 0.0966 µM (active) in the assay with OVCAR-3. Moreover, the GI50 is 0.135 µM (active) in the assay with OVCAR-5; 0.0731 µM (active) with SF-268; 0.0865 µM (active) in the assay on SF-295; 0.0764 µM (active) in the assay on SK-MEL-2; < 0.0385 µM (active) in the assay on SK-MEL-5; 0.369 µM (active) with SNB-19. In addition, in the assay with UACC-62, the GI50 is 0.143 µM (active).

For the molecule `O=C1/C(=C/c2ccc(Cl)cc2)CSc2ccccc21`, the GI50 in the assay on CAKI-1 is 19.4 µM (inactive); in the assay with DU-145, 38.2 µM (inactive); with HCT-15, 4.62 µM; in the assay on HL-60 it was 17.9 µM (inactive); with KM12, 10.1 µM (inactive); in the assay with LOX IMVI, 2.68 µM (inactive). Also, the GI50 is 19 µM (inactive) in the assay with MDA-MB-231; 4.86 µM (inactive) in the assay with MDA-MB-435; 5.55 µM (inactive) in the assay on MOLT-4; 28.7 µM (inactive) in the assay on NCI-H460; 16.6 µM (inactive) in the assay on NCI/ADR-RES; 22.3 µM (inactive) in the assay with OVCAR-3. Besides, the GI50 in the assay with OVCAR-8 was 20.5 µM (inactive); in the assay on SF-268, 22.5 µM (inactive); in the assay on SK-MEL-2, 15.7 µM (inactive); in the assay with SK-MEL-5 it was 20.6 µM (inactive); with SNB-19, 9.2 µM (inactive); with UACC-62, 3.34 µM (inactive).

Consider `N=C(N)N/N=C/c1nc2sccn2c1[N+](=O)[O-]`, for which the GI50 with CAKI-1 was > 100 µM (inactive); in the assay on DU-145 it was 22.3 µM (inactive); in the assay on HCT-15, 47.8 µM; with HL-60, 6.58 µM (inactive); with KM12 it was 16.6 µM (inactive); with LOX IMVI, 21.4 µM (inactive). The GI50 was 26.2 µM (inactive) with MDA-MB-231; 19.8 µM (inactive) with MDA-MB-435; 18.5 µM (inactive) with NCI-H460; > 100 µM (inactive) with NCI/ADR-RES; 17.9 µM (inactive) in the assay on OVCAR-3; > 100 µM (inactive) in the assay on OVCAR-5. The GI50 was 34 µM (inactive) with OVCAR-8; 33.3 µM (inactive) with SF-268; 33.3 µM (inactive) in the assay with SF-295; 19 µM (inactive) in the assay with SK-MEL-2; 18.7 µM (inactive) in the assay on SK-MEL-5; 35.2 µM (inactive) in the assay with SNB-19. In addition, the GI50 with UACC-62 is 30.9 µM (inactive).

With `COc1cc(C2SCC(=O)N2c2ccccc2Cl)cc(OC)c1OC` (stereo unspecified), the GI50 in the assay with CAKI-1 was > 100 µM (inactive); in the assay with DU-145, > 100 µM (inactive); in the assay with HCT-15, greater than 100 µM; in the assay on HL-60, 37.8 µM (inactive); in the assay with KM12 it was 47.2 µM (inactive); in the assay on LOX IMVI, > 100 µM (inactive). Also, the GI50 in the assay on MDA-MB-231 is > 100 µM (inactive); in the assay on MDA-MB-435, 23.7 µM (inactive); in the assay with NCI-H460 it was > 100 µM (inactive); in the assay with NCI/ADR-RES it was 88.5 µM (inactive); in the assay on OVCAR-3, > 100 µM (inactive); in the assay with OVCAR-5, > 100 µM (inactive). In addition, the GI50 is > 100 µM (inactive) in the assay with OVCAR-8; > 100 µM (inactive) in the assay with SF-268; > 100 µM (inactive) in the assay on SF-295; > 100 µM (inactive) in the assay on SK-MEL-2; 92 µM (inactive) in the assay on SK-MEL-5; 79.3 µM (inactive) with SNB-19. The GI50 with UACC-62 is > 100 µM (inactive).

On to `COc1ccc(CN(Cc2ccc(OC)cc2)C(=O)CC2(O)CCc3ccccc3C2)cc1` (stereo unspecified), for which the GI50 was 43.2 µM (inactive) in the assay with CAKI-1; > 100 µM (inactive) in the assay on DU-145; 54.6 µM with HCT-15; 17.8 µM (inactive) with HL-60; 26 µM (inactive) in the assay on KM12; 52.4 µM (inactive) in the assay with LOX IMVI. Also, the GI50 with MDA-MB-231 is > 100 µM (inactive); in the assay with MDA-MB-435 it was 34.8 µM (inactive); with MOLT-4, 7.89 µM (inactive); in the assay with NCI-H460, 44 µM (inactive); in the assay on NCI/ADR-RES, 12.9 µM (inactive); in the assay on OVCAR-3, > 100 µM (inactive). Besides, the GI50 with OVCAR-5 is > 100 µM (inactive); in the assay on OVCAR-8, 37 µM (inactive); in the assay with SF-295, 27.1 µM (inactive); in the assay with SK-MEL-2, 60 µM (inactive); in the assay on SK-MEL-5 it was 28.8 µM (inactive); with SNB-19, > 100 µM (inactive). In the assay with UACC-62, the GI50 was 50.9 µM (inactive).

As for `O=C(NC(O)(C(F)(F)F)C(F)(F)F)c1ccccc1`, the GI50 with CAKI-1 was > 100 µM (inactive); in the assay with DU-145, > 100 µM (inactive); with HCT-15, greater than 100 µM; with HL-60 it was > 100 µM (inactive); in the assay with KM12, > 100 µM (inactive); with LOX IMVI, > 100 µM (inactive). Besides, the GI50 in the assay with MDA-MB-231, in the assay with MDA-MB-435, with MOLT-4, in the assay on NCI-H460, with NCI/ADR-RES and with OVCAR-3 was > 100 µM (inactive) in each case. The GI50 in the assay with OVCAR-5, in the assay on OVCAR-8, in the assay on SF-268, in the assay with SF-295, in the assay with SK-MEL-2 and in the assay on SK-MEL-5 was > 100 µM (inactive) each time. In addition, in the assay with SNB-19, the GI50 is > 100 µM (inactive).

Turning to `CC(=O)O[C@H]1CC2C(C3CCC(C(C)CCC(=O)O)[C@]31C)[C@H](OC(C)=O)C[C@@H]1CC3(CC[C@]21C)OOC1(CC[C@]2(C)C4C[C@H](OC(C)=O)[C@]5(C)C(C(C)CCC(=O)O)CCC5C4[C@H](OC(C)=O)C[C@@H]2C1)OO3` (stereo partly specified), the GI50 is 2.19 µM (inactive) in the assay on CAKI-1; 1.2 µM (inactive) in the assay on DU-145; 2.22 µM in the assay with HCT-15; 1.51 µM (inactive) in the assay on HL-60; 1.31 µM (inactive) in the assay on KM12; 1.63 µM (inactive) in the assay with LOX IMVI. For the same molecule, the GI50 in the assay with MDA-MB-231 is 2.01 µM (inactive); with MDA-MB-435 it was 1.94 µM (inactive); in the assay on MOLT-4, 2.03 µM (inactive); in the assay with NCI-H460, 1.48 µM (inactive); in the assay with NCI/ADR-RES, 2.63 µM (inactive); with OVCAR-3 it was 1.8 µM (inactive). In addition, the GI50 with OVCAR-5 was 1.78 µM (inactive); with OVCAR-8, 1.66 µM (inactive); in the assay on SF-268, 1.38 µM (inactive); in the assay with SF-295, 1.77 µM (inactive); in the assay on SK-MEL-2, 1.77 µM (inactive); in the assay with SK-MEL-5 it was 1.55 µM (inactive). Moreover, the GI50 in the assay with SNB-19 was 2.86 µM (inactive).
